Experiment [1] deals with Growth factor receptor-bound protein 7 (Homo sapiens) (UniProt Q14451).
Description: Binding affinity to human GRB7 SH2-apo domain expressed in Escherichia coli BL21 (DE3) assessed as change in melting temperature at 200 uM by thermofluor based melting point shift assay
The target is the same in experiment [2]. This is another data set of the same source.
Description: Binding affinity to human GRB7 SH2-apo domain expressed in Escherichia coli BL21 (DE3) assessed as change in melting temperature at 100 uM by thermofluor based melting point shift assay
The test system of experiment [3] is MDA-MB-468. Put plainly: Cytotoxicity against human MDA-MB-468 cells after 4 days by SRB assay. The settings on record: MDA-MB-468, 96 h. Background: The SRB assay estimates cell density from bound dye.

Structures are written as SMILES.

For seven molecules, ΔTm and IC50 results are on record in ChEMBL document CHEMBL1641592, “Benzopyrazine derivatives: A novel class of growth factor receptor bound protein 7 antagonists” (Bioorg Med Chem, 2011).

Chain of Growth factor receptor-bound protein 7 (Homo sapiens) (Q14451 whole entry): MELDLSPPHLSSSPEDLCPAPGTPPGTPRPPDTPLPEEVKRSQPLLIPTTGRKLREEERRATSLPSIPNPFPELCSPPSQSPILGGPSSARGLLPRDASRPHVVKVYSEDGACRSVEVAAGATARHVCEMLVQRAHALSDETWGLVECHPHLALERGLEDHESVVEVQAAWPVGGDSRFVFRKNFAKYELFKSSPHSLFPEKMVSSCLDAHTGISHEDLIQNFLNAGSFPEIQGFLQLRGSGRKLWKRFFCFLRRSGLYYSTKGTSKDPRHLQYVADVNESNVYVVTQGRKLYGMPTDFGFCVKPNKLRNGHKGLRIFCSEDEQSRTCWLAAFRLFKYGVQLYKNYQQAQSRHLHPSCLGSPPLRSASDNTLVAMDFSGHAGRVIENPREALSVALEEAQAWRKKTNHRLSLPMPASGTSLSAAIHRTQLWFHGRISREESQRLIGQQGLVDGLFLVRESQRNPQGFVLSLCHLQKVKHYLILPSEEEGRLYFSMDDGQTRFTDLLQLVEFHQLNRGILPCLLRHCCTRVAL

Regarding `COC(=O)C(=O)C(C(=O)C(=O)Nc1cc([N+](=O)[O-])ccc1C#N)c1nc2ccccc2nc1O` (stereo not drawn), the ΔTm (as a rule, the shift of the melting midpoint relative to a reference) in experiment [1] was determined as 0.95 °C; in experiment [2] it was 1.2 °C. Taken in the same sequence, the figures for `COC(=O)C(=O)C(C(=O)C(=O)Nc1cc(C)ccc1C)c1nc2ccccc2nc1O` (stereo not drawn) were 0.6 °C and 0.9 °C. For `COC(=O)C(=O)C(C(=O)C(=O)Nc1ccc(C(N)=O)cc1)c1nc2ccc([N+](=O)[O-])cc2nc1O` (stereo not drawn), in that order: 0.85 °C and 0.45 °C. For `COC(=O)C(=O)C(C(=O)C(=O)Nc1ccccc1C(C)=O)c1nc2ccc(C(=O)c3ccccc3)cc2nc1O` (stereo not drawn), in that order: 0.55 °C and 0.05 °C. Regarding `COC(=O)C(=O)C(C(=O)C(=O)Nc1cccc(C(C)=O)c1)c1nc2ccc([N+](=O)[O-])cc2nc1O` (stereo not drawn), the ΔTm in experiment [1] was determined as 0.55 °C; in experiment [2] it was 0.45 °C.

For the molecule `C[C@@H](O)[C@@H]1NC(=O)[C@H](CC(N)=O)NC(=O)[C@H](CC(=O)O)NC(=O)[C@H](Cc2ccc(O)cc2)NC(=O)CNC(=O)[C@@H](CCC(=O)O)NC(=O)[C@H](Cc2ccccc2)NC(=O)[C@H](Cc2c[nH]c3ccccc23)NC(=O)CSC[C@@H](C(=O)O)NC(=O)[C@@H]2CCCN2C(=O)[C@H](Cc2ccccc2)NC1=O`, the ΔTm in experiment [1] came to 1.85 °C; in experiment [2] it was 1.35 °C. On to `COC(=O)C(=O)C(C(=O)C(=O)Nc1ccccc1C(N)=O)c1nc2ccc(C(=O)c3ccccc3)cc2nc1O` (stereo not drawn), for which the IC50 (commonly the midpoint of a concentration-inhibition curve) in experiment [3] came to 86 µM.
